Measured values from patent US20160022760A1, “METHODS OF TREATING CELIAC DISEASE WITH LARAZOTIDE” (priority 2014, published 2016).
Where no end group is shown, it is not given here.

Assays:
[1] = system: anti-deamidated gliadin peptide (anti-DGP IgA and IgG); conditions: MITT
Excerpt: (§1) Blood was collected for determination of serum anti-tTG (IgA and IgG) and anti-DGP (IgA and IgG) at the timings specified in Table 2.
(§2) Anti-tTG (IgA and IgG) and anti-DGP (IgA and IgG), and change from baseline (Week 0) to Visit 4 (Week 4), End of Treatment Visit 6 (Week 12), and End of Study Visit 7 (Week 16) were summarized descriptively. Week 0 served as baseline.

[2] = system: anti-tissue transglutaminase (anti-tTG IgA and IgG); conditions: each treatment group, MITT
Excerpt: as §1, §2

[3] = Phase IIb study: vital signs, BMI and body weight; assay type: in vivo, human
Method: Body weight was measured and BMI was calculated based upon screening height and weight at the timings specified in Table 2.
The Investigator or designee obtained vital signs including temperature, blood pressure (sitting), and pulse at screening and all study visits.
For continuous variables, changes from baseline to each time point were summarized with the number of nonmissing values, mean, standard deviation, median, and minimum and maximum values. For categorical variables, subject counts and percentages were provided. Results of ECGs were classified as normal; abnormal, not clinically significant, and abnormal, clinically significant, as specified on the ECG page of the eCRF. Summaries were presented by treatment group.

[4] = system: celiac disease; conditions: cited from earlier work

Sequence: GGVLVQPG (SEQ ID NO:1) [Larazotide acetate]
- Anti-DGP (IgA and IgG) antibody titers versus placebo, in words ([1]; any Larazotide acetate group): no clinically meaningful post baseline differences
- Average anti-DGP antibody titers (IgA) over the study, in words ([1]; each treatment group): remained relatively unchanged
- Average anti-tTG antibody titers (IgA) over the study, in words [2]: remained relatively unchanged
- Average anti-tTG antibody titers (IgA) ([2]; throughout the study): < 10 units
- Mean change from baseline in BMI (range) ([3]; 0.5, 1 and 2 mg groups, Week 4, Week 8, end of treatment, end of follow-up, placebo −0.1 to −0.3): 0 to 0.2 kg/m^2
- Mean change from baseline in body weight (range) ([3]; 0.5, 1 and 2 mg groups, placebo −0.2 to −0.8): -0.1 to 0.5 kg
- Mean changes from baseline in vital sign variables versus placebo, in words ([3]; systolic and diastolic blood pressure, pulse rate, body temperature): No clinically meaningful differences
- Safety profile in previous clinical studies, in words ([4]; 0.25 mg to 8 mg TID and up to 36 mg in a single dose): acceptable safety profile
- Efficacy of lower doses in previous studies, in words ([4]; lower doses 0.25 mg and 1 mg versus 4 mg or 8 mg): more effective compared to placebo than higher doses of 4 mg or 8 mg
